This series is described as follows: Dissolution test (paddle method, Japanese Pharmacopoeia Sixteenth Edition), first fluid for dissolution test. In kind it is physicochemical. The settings on record: for dissolution rate in the first fluid for dissolution test: 30 minutes after initiation, paddle 50 rpm, 37° C., 900 mL, hydrochloride. The method, then: In order to evaluate each of the compositions (tablets) in Example 1 and Comparative Example 1, a dissolution test was performed in accordance with dissolution apparatus 2 (paddle method) in the Japanese Pharmacopoeia Sixteenth Edition. Detailed conditions of the dissolution test are as follows.
In order to evaluate each of the compositions (tablets) in Example 2 and Comparative Example 2, a dissolution test was performed in the same manner as in Test Example 1.

[1] abbreviates: coated tablets of Example 1 / Comparative Example 1 (direct compression), FIG. 5.

A value given as a limit tells only on which side of the number the result lay.

As to `COc1c(N2C[C@H](CNC3CC3)[C@H](F)C2)c(F)cc2c(=O)c(C(=O)O)cn(CCF)c12.Cl` [Compound 1, 7-[(3S,4S)-3-((cyclopropylamino)methyl)-4-fluoropyrrolidine-1-yl]-6-fluoro-1-(2-fluoroethyl)-8-methoxy-4-oxo-1,4-dihydroquinoline-3-carboxylic acid hydrochloride], the “dissolution rate in the first fluid for dissolution test” value reads like this: under setting [1], “at most 25%”; (coated tablets of Example 2 / Comparative Example 2 (wet granulation method), FIG. 6) “at most 30%”.
`COc1c(N2C[C@H](CNC3CC3)[C@H](F)C2)c(F)cc2c(=O)c(C(=O)O)cn(CCF)c12.Cl` [Compound 2, 7-[(3S,4S)-3-{(cyclopropylamino)methyl}-4-fluoropyrrolidine-1-yl]-6-fluoro-1-(2-fluoroethyl)-8-methoxy-4-oxo-1,4-dihydroquinoline-3-carboxylic acid hydrochloride]: the “dissolution rate in the first fluid for dissolution test” value is at least 80% under setting [1] and at least 80% (coated tablets of Example 2 / Comparative Example 2 (wet granulation method), FIG. 6, listed as B-form crystal). Besides, the “dissolution rate in the first fluid for dissolution test compared with the tablet containing Compound 1 (A-form crystal)” value (tablets of Example 1 vs Comparative Example 1, FIG. 5) was “higher”.

For the origin of these results see patent US20170246160A1, “SOLID PHARMACEUTICAL COMPOSITION” (KYORIN PHARMACEUTICAL CO., LTD., priority 2014, published 2017).
